Measurements published in patent publication US12691101B2, “Compound and method for preventing or treating of respiratory diseases comprising the same as an active ingredient” (YONSEI UNIVERSITY, UNIVERSITY - INDUSTRY FOUNDATION (UIF), priority 2019, dated 2026).

Columns and labels:
pendrin = test: Pendrin protein expression in LPS-treated human alveolar epithelial cells (hAEC); format: cell-based
Procedure: The lung tissue was harvested and dissolved in a homogenization buffer (PRO-PREP™ extraction solution, iNtRON Biotechnology). The sample was centrifuged at 4° C. for 30 minutes at 13000 g. The supernatant protein concentration was determined by BCA analysis (Thermo Fisher Scientific). The same amount of protein was separated by SDS/PAGE and transferred to a nitrocellulose membrane. The membrane was blocked with 5% skim milk in TBS-T (TBS (170-6435, Bio-Rad Laboratories) and 1% Tween-20 (170-6531, Bio-Rad Laboratories) for 1 hours. Then, the membrane was cultured overnight with the primary antibody diluted with 5% skim milk in TBS-T at 4° C. After washing with TBS-T, the blot was cultured with horseradish peroxidase-combined secondary antibody and 5% skim milk in TBS-T at a room temperature for 1 hour, and then developed using Super-Signal West Pico chemiluminescence detection kit. The antibody used in the present invention includes rabbit SLC26A4 (ab98091, abcam), mouse phospho-Iκ (9246, Cell Signaling Technology), mouse Iκ (4814, Cell Signaling Technology), and rabbit α-tubulin (PA5-16891, Cell Signaling Technology). Western blot quantization was performed using ImageJ (Image Processing and Analysis in Java; NIH, USA) software.

[1] = system: AN01, CFTR and ENaC ion channel activity; test: Short circuit current in HNE cells; format: cell-based, human; settings: long-term treatment (48 hours)
Procedure: (A) Representative tracing of intracellular pH of treated (grey line) and IL-4 (10 ng/ml) treated HNE cells. Pendrin was inhibited by F56 ([…]). (B) The mRNA expression level of pendrin was determined at the indicated time after treatment of F56 ([…]) by real-time quantitative PCR in IL-4-treated HBE cells (mean±S.E., n=3). (C) The Cl^−/HCO3^− exchange activity was measured in IL-4-treated HBE cells. F56 was pretreated for 5 minutes. (D, E) Short circuit current record of HNE cells. Representative tracing showing the effect of F56 on the ENaC, CFTR and CaCC channel activity. After exposing to F56 ([…]) for 48 hours, in presence or absence of IL-4, the channel activity was measured. Amiloride (100 μM), forskolin (20 μM, CFTRinh-172 (10 μM) and ATP (100 μM) were added to the apical bath. (F) The AN01, CFTR and ENaC mRNA expression level was determined at the indicated time after treatment of F56 ([…]) by real-time quantitative PCR in IL-4-treated HNE cells (mean±S.E., n=5) * P<0.05, ** P<0.01, *** P<0.001.
Snapwell inserts containing the primary culture of AN01- and CFTR-expressing FRT and human nasal cavity epithelium (HNE) cells were equipped on Ussing chamber (Physiologic Instruments, San Diego, CA, USA). […] Using Labchart Pro 7 (AD Instruments), data were recorded and analyzed. […]

HNE cells [2] = test: IL-4 and IL-13-induced goblet cell hyperplasia in HNE cells, PAS staining; format: cell-based, human; settings: pretreatment
Procedure: (A) The MUC5AC mRNA expression level was determined at the indicated time after treatment of F56 ([…]) in IL-4 (10 ng/ml)-treated HNE cells (mean±S.E., n=4). (B) Periodic acid-Schiff (PAS) staining showing goblet cell hyperplasia of IL-4 and IL-13 (10 ng/ml)-treated HNE cells in presence or absence of F56 ([…]) at Day 7. (C) Measurement of the total volume of ASL and fluid meniscus in HNE cells expressing wild-type (wt) or mutant (mt) PDS. The HNE cells were treated with IL-4 (10 ng/ml, 48 hours) in presence or absence of […]. (D) Representative image of a transwell insert having normal HNE cells. Arrows indicate the fluid meniscus of HNE cells treated with IL-4 (10 ng/ml, 48 hours) in presence or absence of […] F56. (E) Representative protein expression result of pendrin in IL-4 and IL-13-treated HNE cells. (F) Measurement of the total volume of ASL and fluid meniscus. The HNE cells were treated with IL-13 (10 ng/ml, 48 hours) in presence or absence of 30 mM F56 (mean±S.E., n=3-4). * P<0.05, *** P<0.001. Size bar, 30 μm.
For evaluation of airway inflammation, left lung was fixed in 4% paraformaldehyde overnight and embedded in paraffin. […] The inflammation score showing the severity of bronchial inflammation was evaluated by 3 blind observers using a method reported conventionally. […]

HNE cells [3] = test: ASL and fluid meniscus volume measurement in HNE cells; format: cell-based, human
Procedure: The total volume of ASL and fluid meniscus, which is fluid with the cell culture insert wall, was measured by fluid absorption through filter paper. Whatman filter paper (10 mm diameter circle; GE Healthcare) was placed on the apical size of a 12-well transwell insert (Costar Co.) for 10 seconds. The absorption of the ASL and fluid meniscus was measured from the weight change of the filter paper. The weight of the filter paper was measured using an analysis scale (Sartorius BP61S; Sartorius AG, Gottingen, Germany).

`CC(C)(C)c1ccc(C2=NC(=Cc3cccs3)C(=O)O2)cc1` [F56, 2-(4-(tert-butyl)phenyl)-4-(thiophen-2-ylmethylene)oxazol-5(4H)-one] was tested, and the “protein expression level of pendrin” value (pendrin) was “reduced”, the “ion channel activity of AN01, CFTR and ENaC” value [1] was “did not change” and the “IL-4 and IL-13-induced goblet cell hyperplasia” value (HNE cells [2]) was “significantly reduced”. The “total volume of ASL and fluid meniscus” value (HNE cells [3]; IL-4-treated HNE cells expressing a mutant pendrin) was “not changed” and the “total volume of ASL and fluid meniscus” value (HNE cells [3]; IL-4 and IL-13-treated HNE cells expressing wild-type pendrin) was “hardly reduced”.
